From patent US20250263370A1 (Tay Therapeutics Limited, priority 2022, published 2025)
Read-outs that look alike come from different tables or passages of the source.

What was measured:
[1] = Plasma stability assay, rat plasma; format: in vitro ADME; conditions: Method 2 (10 μM)
Experimental: From stock solution of compound in 10 mM DMSO, a working solution of 1 mM is prepared by diluting the compound in DMSO. To 398 μL of plasma pre-warmed at 37° C. for 15 minutes), 2 μL of working solution of compound is added, resulting in a final concentration of 5 μM (0.5% DMSO) for the compound. The sample is then incubated at 37° C. Aliquot is withdrawn at specified time-points (0, 15, 30, 60 and 120 mins). The reaction is stopped by addition of 450 μL cold acetonitrile containing internal standard (IS). […] Aliquots of the supernatant is analysed using LC-MS/MS. The percent remaining of the compound at each time point is calculated with respect to the control sample (0 min time-point).
A working solution of compound (500 μM) is prepared in DMSO (100%). To 735 μL of plasma, 15 μL of working solution of compound is added—resulting in a final concentration of 10 μM (2% DMSO) for the compound. The sample is then incubated at 37° C. Aliquot is withdrawn at time-points—0, 15, 30, 60, 90 and 120 mins. The reaction is stopped by using chilled acetonitrile containing internal standard (IS). The samples are centrifuged and the supernatants analyzed using LC-MS/MS. The percent remaining of the compound at each time point is calculated with respect to the control sample (0 min time-point).

[2] = Intrinsic clearance in liver microsomes, rat; format: in vitro ADME; conditions: rat, liver microsomes, pH 7.4, rat liver microsomes, read-out: Half-Life (T1/2) (min), Rat
Experimental: From stock solution of compound on 10 mM DMSO, a working solution of 0.1 mM is prepared by diluting the compound in DMSO. 6.25 μL of a 20 mg/mL solution of microsomes in PBS pH 7.4 buffer is added to 216.25 μL PBS pH 7.4 buffer (final microsome concentration—0.5 mg/mL). 25 μL of 10 mM solution of NADPH in PBS pH 7.4 buffer is added to the incubations (final NADPH concentration—1 mM). The mixture is pre-warmed to 37° C. for 10 minutes. 2.5 μL of test compound working solution is added (final compound concentration—1 μM with 1% DMSO). Aliquots of 30 μL are taken from the reaction solution at 0.5, 5, 15, 30 and 60 minutes. The reaction was stopped by the addition of 5 volumes of cold acetonitrile with IS (100 nM alprazolam, 200 nM caffeine and 100 nM tolbutamide). Samples were centrifuged at 3, 220 g for 40 minutes. Aliquots of 100 μL of the supernatant are mixed with 100 μL of ultra-pure H2O and used for LC-MS/MS analysis. The percent compound remaining at each time point is calculated with respect to that of the 0.5 min sample. The data are analysed to calculate half-life. Control experiments are run without NADPH and blank samples are prepared using DMSO without the test compound.
A 50 mM stock solution (in DMSO) is prepared for the compound. From the stock solution, a working solution of 0.5 mM is prepared by diluting the compound in DMSO. This concentration of working solution is prepared considering a final concentration of 1 uM with 0.1% DMSO. The compound (1 μL of working solution) is spiked in PBS with pH 7.4 ([…]) at a concentration of 1 μM. Subsequently, 110 μL of 10 mM NADPH is added (as a co-factor). The sample is incubated at 37° C. for 15 min. Following this, pre-warmed liver microsomes (27.5 μL; final protein conc. 0.5 mg/mL) are added. The samples are then incubated at 37° C. Aliquots of samples are withdrawn at 0, 5, 15, 30, 45 and 60 min. The reaction is stopped by using chilled acetonitrile containing internal standard. The samples are centrifuged, and the supernatants analysed by LC-MS/MS. The percent compound remaining at each time point is calculated with respect to that of the 0 min sample. The data are then analysed to calculate half-life and intrinsic clearance (CLint). Control experiments are run without NADPH and blank samples are prepared using DMSO without the test compound.

BRD4 BD1 = BRD4 BD1 (Homo sapiens (Human), UniProt O60885); experiment: NanoBRET bromodomain assay, NanoLuc-BRD4-BD1 fusion in HEK293 cells; format: cell-based; conditions: top concentration 10 μM
BRD4 BD2 = BRD4 BD2 (Homo sapiens (Human), UniProt O60885); experiment: NanoBRET bromodomain assay, NanoLuc-BRD4-BD2 fusion in HEK293 cells; conditions: for IC50: BRD4 BD2 (IC50), NanoBRET, HEK293 cells, top concentration 10 μM; for Fold selectivity: IC50 for BRD4 BD1 divided by IC50 for BRD4 BD2, qualitative if an IC50 is at the upper limit;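 as to all read-outs here: tracer displacement BRET read in transfected cells after 2 h compound exposure at 37 °C, signal in milliBRET units corrected against no-tracer background wells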
[3] = Sprague-Dawley rat pharmacokinetics, IV and PO cassette dosing; format: in vivo; conditions: for IV T1/2 / PO F: Method 1; for PO F: PO 5 mg/kg
Experimental: Compounds were formulated in 5% DMSO, 40% PEG-400, 55% Milli-Q water at a concentration of 0.2 mg/mL for IV and at 0.5 mg/mL for PO. Two male Sprague-Dawley rats per arm were dosed with up to 5 compounds in cassette mode, which each compound being dosed at 1 mg/kg IV and 5 mg/kg PO. Blood was sampled at various timepoints and plasma isolated. 50 μL of plasma with 5 μL of blank Sprague-Dawley rat plasma were added to 200 μL of acetonitrile containing IS mixture. The samples were vortexed for 30 s. After centrifugation at 4 degrees Celsius, 3900 rpm for 15 min, the supernatant was diluted 3 times with water. 20 μL of diluted supernatant was injected into the LC/MS/MS system for quantitative analysis and concentration of analyte determined by comparison with matrix matched standard curve. WinNonlin (Phoenix™, version 8.3) or other similar software may be used for pharmacokinetic calculations.

With `CCNC(=O)c1cc(OC(C)c2ccc(Br)cc2)c(C(=O)NC)[nH]1` (single isomer, unassigned) [Example 49, 3-(1-(4-bromophenyl)ethoxy)-N^5-ethyl-N^2-methyl-1H-pyrrole-2,5-dicarboxamide] the “Plasma Stability (% remaining at 120 minutes), Rat” value [1] was 90%, the half-life at 1 μM ([2]; Method 2) was > 60 min and the IC50 (BRD4 BD1) was ≥ 10000 nM. For the same compound, the IC50 (BRD4 BD2) was < 50 nM and the Fold selectivity (BRD4 BD2) was “XXX (Fold >200)”.
With `CCNC(=O)c1cc(OC(c2ccccc2)c2ccccc2)c(C(=O)NC)[nH]1` [Example 53, 3-(benzhydryloxy)-N^5-ethyl-N^2-methyl-1H-pyrrole-2,5-dicarboxamide] the “Plasma Stability (% remaining at 120 minutes), Rat” value [1] was 91%, the half-life at 1 μM ([2]; Method 2) was > 60 min and the IC50 (BRD4 BD1) was ≥ 10000 nM. The IC50 (BRD4 BD2) was 50 to 200 nM and the Fold selectivity (BRD4 BD2) was “XX (Fold >50 and ≤200)”.
For `CNC(=O)c1[nH]c(C(=O)NC2CCC2)cc1OC(C)c1ccc(Cl)cc1` (single isomer, unassigned) [Example 27, 3-(1-(4-chlorophenyl)ethoxy)-N^5-cyclobutyl-N^2-methyl-1H-pyrrole-2,5-dicarboxamide], the “Plasma Stability (% remaining at 120 minutes), Rat” value [1] was 47%, the half-life at 1 μM ([2]; Method 1) was 47 min and the “IV T1/2” value ([3]; IV 1 mg/kg) was 24 min. The “PO F” value [3] was 47%, the IC50 (BRD4 BD1) was ≥ 10000 nM and the IC50 (BRD4 BD2) was < 50 nM. For the same compound, the Fold selectivity (BRD4 BD2) was “XXX (Fold >200)”.
With `CNC(=O)c1[nH]c(C(=O)NC2COC2)cc1OC(C)c1ccc(Cl)cc1F` (single isomer, unassigned) [Example 39, 3-(1-(4-chloro-2-fluorophenyl)ethoxy)-N^2-methyl-N^5-(oxetan-3-yl)-1H-pyrrole-2,5-dicarboxamide] the “Plasma Stability (% remaining at 120 minutes), Rat” value [1] was 93%, the half-life at 1 μM ([2]; Method 1) was > 60 min and the “PO F” value [3] was 11%. For the same compound, the half-life ([3]; male, Sprague-Dawley, rat, plasma, iv, 1 mg/kg, IV 1 mg/kg, Method 1, read-out: IV T1/2 (converted)) was 30 min, the IC50 (BRD4 BD1) was ≥ 10000 nM and the IC50 (BRD4 BD2) was 50 to 200 nM. The Fold selectivity (BRD4 BD2) was “XX (Fold >50 and ≤200)”.
For `CNC(=O)c1[nH]c(-c2ncc(C)[nH]2)cc1O[C@@H](C)c1ccc(Cl)cc1` [Example 69, (S)-3-(1-(4-chlorophenyl)ethoxy)-N-methyl-5-(5-methyl-1H-imidazol-2-yl)-1H-pyrrole-2-carboxamide], the “Plasma Stability (% remaining at 120 minutes), Rat” value [1] was 83%, the half-life at 1 μM ([2]; Method 2) was 21 min and the IC50 (BRD4 BD1) was ≥ 10000 nM. The IC50 (BRD4 BD2) was < 50 nM and the Fold selectivity (BRD4 BD2) was “XXX (Fold >200)”.
In the case of `CNC(=O)c1[nH]c(C(=O)N[C@H]2CC[C@H](O)CC2)cc1OC(C)c1ccccc1F` (single isomer, unassigned) [Example 45], the “Plasma Stability (% remaining at 120 minutes), Rat” value [1] is reported as 88%, the half-life at 1 μM ([2]; Method 2) is reported as > 60 min and the Fold selectivity (BRD4 BD2) is reported as “XX (Fold >50 and ≤200)”.
For `CNC(=O)c1[nH]c(C(=O)NCC(F)(F)F)cc1O[C@@H](C)c1ccccc1` [Example 54, (S)—N^2-methyl-3-(1-phenylethoxy)-N^5-(2,2,2-trifluoroethyl)-1H-pyrrole-2,5-dicarboxamide], the “Plasma Stability (% remaining at 120 minutes), Rat” value [1] was 93%, the half-life at 1 μM ([2]; Method 2) was > 60 min and the IC50 (BRD4 BD1) was ≥ 10000 nM. For the same compound, the IC50 (BRD4 BD2) was 50 to 200 nM and the Fold selectivity (BRD4 BD2) was “XX (Fold >50 and ≤200)”.
In the case of `CNC(=O)c1[nH]c(C(=O)NC(C)C)cc1O[C@@H](C)c1ccc(Cl)cc1` [Example 61, (S)-3-(1-(4-chlorophenyl)ethoxy)-N^5-isopropyl-N^2-methyl-1H-pyrrole-2,5-dicarboxamide], the “Plasma Stability (% remaining at 120 minutes), Rat” value [1] is reported as 81%, the half-life at 1 μM ([2]; Method 2) is reported as > 60 min and the IC50 (BRD4 BD1) is reported as ≥ 10000 nM. For the same compound, the IC50 (BRD4 BD2) was 50 to 200 nM and the Fold selectivity (BRD4 BD2) was “XX (Fold >50 and ≤200)”.
With `CNC(=O)c1[nH]c(-c2ncc(C)[nH]2)cc1O[C@@H](C)c1ccccc1F` [Example 68, (S)-3-(1-(2-fluorophenyl)ethoxy)-N-methyl-5-(5-methyl-1H-imidazol-2-yl)-1H-pyrrole-2-carboxamide] the “Plasma Stability (% remaining at 120 minutes), Rat” value [1] was 75%, the half-life at 1 μM ([2]; Method 2) was 23 min and the IC50 (BRD4 BD1) was ≥ 10000 nM. For the same compound, the IC50 (BRD4 BD2) was < 50 nM and the Fold selectivity (BRD4 BD2) was “XXX (Fold >200)”.
With `CCNC(=O)c1cc(OC(C)c2ccc(I)cc2)c(C(=O)NC)[nH]1` (single isomer, unassigned) [Example 51, N^5-ethyl-3-(1-(4-iodophenyl)ethoxy)-N^2-methyl-1H-pyrrole-2,5-dicarboxamide] the “Plasma Stability (% remaining at 120 minutes), Rat” value [1] was 93%, the half-life at 1 μM ([2]; Method 2) was > 60 min and the IC50 (BRD4 BD1) was ≥ 10000 nM. The IC50 (BRD4 BD2) was < 50 nM and the Fold selectivity (BRD4 BD2) was “XXX (Fold >200)”.
In the case of `CCNC(=O)c1[nH]c(C(=O)NC)c(O[C@@H](C)c2ccccc2F)c1Br` [Example 72, (S)-3-bromo-N^2-ethyl-4-(1-(2-fluorophenyl)ethoxy)-N^5-methyl-1H-pyrrole-2,5-dicarboxamide], the “Plasma Stability (% remaining at 120 minutes), Rat” value [1] is reported as 9%, the half-life at 1 μM ([2]; Method 2) is reported as 13 min and the IC50 (BRD4 BD2) is reported as > 10000 nM. The Fold selectivity (BRD4 BD2) was “— (Fold ≥0 and ≤2)”.
With `CCNC(=O)c1cc(OC(C)c2c(F)cccc2F)c(C(=O)NC)[nH]1` (single isomer, unassigned) [Example 55, 3-(1-(2,6-difluorophenyl)ethoxy)-N^5-ethyl-N^2-methyl-1H-pyrrole-2,5-dicarboxamide] the “Plasma Stability (% remaining at 120 minutes), Rat” value [1] was 88%, the half-life at 1 μM ([2]; Method 2) was > 60 min and the Fold selectivity (BRD4 BD2) was “— (Fold ≥0 and ≤2)”.
In the case of `CNC(=O)c1[nH]c(C(=O)NC2COC2)cc1OC(C)c1ccccc1F` (single isomer, unassigned) [Example 47, 3-(1-(2-fluorophenyl)ethoxy)-N^2-methyl-N^5-(oxetan-3-yl)-1H-pyrrole-2,5-dicarboxamide], the “Plasma Stability (% remaining at 120 minutes), Rat” value [1] is reported as 76%, the half-life at 1 μM ([2]; Method 2) is reported as > 60 min and the IC50 (BRD4 BD1) is reported as ≥ 10000 nM. The IC50 (BRD4 BD2) was 50 to 200 nM and the Fold selectivity (BRD4 BD2) was “XX (Fold >50 and ≤200)”.
In the case of `CNC(=O)c1[nH]c(C(=O)NC2COC2)cc1OC(C)c1ccc(Cl)cc1` (single isomer, unassigned) [Example 31, 3-(1-(4-chlorophenyl)ethoxy)-N^2-methyl-N^5-(oxetan-3-yl)-1H-pyrrole-2,5-dicarboxamide], the “Plasma Stability (% remaining at 120 minutes), Rat” value [1] is reported as 81%, the half-life at 1 μM ([2]; Method 1) is reported as > 60 min and the “IV T1/2” value ([3]; IV 1 mg/kg) is reported as 36 min. For the same compound, the “PO F” value [3] was 15% and the Fold selectivity (BRD4 BD2) was “XX (Fold >50 and ≤200)”.
